ChEMBL document CHEMBL1201862, “PubChem BioAssay data set” (2004)
Activity calls are given as the source filed them.

What was measured:
[1] = target: T1, Corticotropin-releasing factor receptor 2/Corticotropin-releasing factor-binding protein (Homo sapiens, UniProt P24387+Q13324); test: activators of CRF receptor 2 with binding protein – uHTS hits, confirmation (AID 602473); format: functional; settings: read-out: EC50_Mean
T1 sequence (Q13324 whole entry): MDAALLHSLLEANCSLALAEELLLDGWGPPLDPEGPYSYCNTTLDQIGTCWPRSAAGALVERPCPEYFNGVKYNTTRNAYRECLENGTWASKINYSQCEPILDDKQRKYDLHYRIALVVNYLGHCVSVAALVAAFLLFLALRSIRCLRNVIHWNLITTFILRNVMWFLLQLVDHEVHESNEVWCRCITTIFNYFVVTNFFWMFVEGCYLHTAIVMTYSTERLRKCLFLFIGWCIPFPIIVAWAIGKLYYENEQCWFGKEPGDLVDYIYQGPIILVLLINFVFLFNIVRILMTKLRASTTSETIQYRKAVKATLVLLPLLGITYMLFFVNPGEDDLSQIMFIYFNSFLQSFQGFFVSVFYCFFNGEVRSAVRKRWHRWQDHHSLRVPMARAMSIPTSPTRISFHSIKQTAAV
T1 sequence (P24387 whole entry): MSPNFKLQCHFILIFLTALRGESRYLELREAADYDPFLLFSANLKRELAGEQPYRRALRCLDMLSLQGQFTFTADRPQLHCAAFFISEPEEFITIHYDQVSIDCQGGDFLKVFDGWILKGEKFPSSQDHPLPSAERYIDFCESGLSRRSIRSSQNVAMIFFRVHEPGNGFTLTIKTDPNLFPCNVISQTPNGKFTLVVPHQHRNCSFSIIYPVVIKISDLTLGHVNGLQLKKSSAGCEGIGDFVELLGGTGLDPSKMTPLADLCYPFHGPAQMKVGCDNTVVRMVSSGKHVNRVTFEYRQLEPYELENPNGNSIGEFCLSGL

[2] = Luminescence Cell-Based Dose Confirmation HTS to Identify Activators of 5'UTR Stem-Loop Driven Alpha-Synuclein mRNA Translation in H4 Neuroglioblastoma Cells. [Related pubchem assays: 1829 (Project Summary), 1814 (Primary HTS)]; format: functional
H4 = test: Luminescence Cell-Based Dose Response HTS to Identify Activators of 5'UTR Stem-Loop Driven Prion Protein mRNA Translation in H4 Neuroglioblastoma Cells. [Related pubchem assays: 1829 (Project Summary), 1814 (Primary HTS)]; format: functional; settings: Homo sapiens
[3] = Luminescence Cell-Based Dose Response HTS to Identify Activators of Luciferase Translation or Activity in H4 […] Cells. [Related pubchem assays: 1829 (Project Summary), 1814 (Primary HTS)]; format: functional
[4] = Luminescence Cell-Based Dose Response HTS to Identify Inhibitors of 5'UTR Stem-Loop Driven Prion Protein mRNA Translation in H4 Neuroglioblastoma Cells. [Related pubchem assays: 1827 (Project Summary), 1813 (Primary HTS)]; format: functional
[5] = alpha-synuclein stem-loop luciferase translation blockers – H4 neuroglioma cells, luminescence, confirmation (AID 1988); format: functional, cell-based
[6] = target: T2, Rac GTPase-activating protein 1 (Homo sapiens, UniProt Q9H0H5); test: blockers of MgcRacGAP-driven Rac1 GTP hydrolysis – biochemical, ADP Hunter fluorescence, primary and confirmatory, confirmation (AID 624330); format: functional
T2 sequence (Q9H0H5 whole entry): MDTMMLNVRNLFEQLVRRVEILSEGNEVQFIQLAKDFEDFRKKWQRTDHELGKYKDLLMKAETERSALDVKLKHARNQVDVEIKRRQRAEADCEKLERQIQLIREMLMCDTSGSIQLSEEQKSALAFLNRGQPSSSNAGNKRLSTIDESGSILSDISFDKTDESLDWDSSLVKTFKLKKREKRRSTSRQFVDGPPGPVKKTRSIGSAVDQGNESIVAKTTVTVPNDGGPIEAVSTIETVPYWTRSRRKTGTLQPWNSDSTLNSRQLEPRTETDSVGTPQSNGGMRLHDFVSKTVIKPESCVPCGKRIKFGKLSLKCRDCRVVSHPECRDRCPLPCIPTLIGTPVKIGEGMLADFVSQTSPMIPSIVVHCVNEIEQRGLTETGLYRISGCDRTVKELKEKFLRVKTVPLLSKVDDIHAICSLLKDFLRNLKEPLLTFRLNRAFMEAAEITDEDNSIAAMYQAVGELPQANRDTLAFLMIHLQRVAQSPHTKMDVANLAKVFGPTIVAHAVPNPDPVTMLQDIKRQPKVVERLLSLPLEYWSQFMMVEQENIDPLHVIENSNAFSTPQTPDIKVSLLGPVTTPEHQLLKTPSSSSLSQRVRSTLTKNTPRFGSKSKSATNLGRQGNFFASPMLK

[7] = loss of viability in HepG2 cells – cell-based, CellTiter-Glo, cherry-picked, cytotoxicity control for Shn3 inhibitor project, dose response (AID 624134); format: functional
[8] = reduction of Shn3 3'UTR-driven luciferase in osteoblasts – cell-based, Clone20 osteoblasts, firefly luciferase, cherry-picked, dose response (AID 624132); format: functional;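 note: firefly luciferase luminescence from reporter carrying the Shn3 3'UTR in osteoblasts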
[9] = non-specific 3'UTR reporter inhibition in Clone20-Shn3RL – cell-based, Renilla luciferase, cherry-picked, counter-screen for Shn3 inhibitor project, dose response (AID 624133); format: functional
Large T antigen = Large T antigen (Simian virus 40, UniProt P03070); format: functional, Betapolyomavirus macacae;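 note: Confirmatory-stage PubChem screen for compounds that inhibit SV40 T antigen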
INS1 = test: INS-1E survival protection against cytokine death – cell-based, luminescence, retest, dose response (AID 449756); format: functional; settings: Rattus norvegicus;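 note: cell death triggered by IL-1 beta plus TNF-alpha plus IFN-gamma mixture; protective hits raise ATP signal compared with cytokine alone wells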
[10] = luciferase reporter signal suppression in cells – H4 neuroglioma cells, luminescence, dose response (AID 1990); format: functional, cell-based

Sequence of Large T antigen (P03070 whole entry): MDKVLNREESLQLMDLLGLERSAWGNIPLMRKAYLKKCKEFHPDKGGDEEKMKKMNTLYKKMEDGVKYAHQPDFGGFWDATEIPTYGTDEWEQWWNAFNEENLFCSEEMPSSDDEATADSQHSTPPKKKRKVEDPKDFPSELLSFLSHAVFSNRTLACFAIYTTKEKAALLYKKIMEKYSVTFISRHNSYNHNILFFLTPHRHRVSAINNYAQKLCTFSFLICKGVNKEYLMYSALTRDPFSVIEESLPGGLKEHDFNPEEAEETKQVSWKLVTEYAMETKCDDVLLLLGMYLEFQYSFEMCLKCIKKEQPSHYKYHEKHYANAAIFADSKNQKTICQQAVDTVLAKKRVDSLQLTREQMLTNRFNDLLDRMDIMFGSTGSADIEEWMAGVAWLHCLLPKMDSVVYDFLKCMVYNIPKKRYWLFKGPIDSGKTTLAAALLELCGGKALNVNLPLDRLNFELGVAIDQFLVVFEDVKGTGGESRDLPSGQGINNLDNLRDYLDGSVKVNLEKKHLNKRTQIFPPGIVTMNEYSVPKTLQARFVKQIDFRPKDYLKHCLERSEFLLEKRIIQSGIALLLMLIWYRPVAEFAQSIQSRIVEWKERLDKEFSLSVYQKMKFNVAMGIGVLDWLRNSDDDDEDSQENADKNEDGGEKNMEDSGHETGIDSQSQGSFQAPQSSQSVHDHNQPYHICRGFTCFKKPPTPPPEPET

Compound: CCOC(=O)c1ccc(NCn2c(=O)oc3ccccc32)cc1
- EC50 [1]: > 53 µM (inactive)

Compound: c1ccc(-c2cn(CC3CCCCC3)nn2)cc1
- EC50 [2]: 0.146 µM (active)
- EC50 (H4): > 120 µM (inconclusive)
- EC50 [3]: 0.236 µM (active)

Compound: O=C(c1cc(-c2ccc3c(c2)OCO3)on1)N1CCCCC1
- EC50 [4]: 10.3 µM (active)
- EC50 [5]: 7.22 µM (inconclusive)

Compound: Nc1ccc(Nc2ccccc2)c(Cl)c1
- IC50 [6]: 17.3 µM (active)

Compound: Cc1ccc(-n2nnnc2-c2cnc(-c3cccnc3)nc2C(F)(F)F)cc1
- AC50 [7]: 57.4 µM (active)
- AC50 [8]: 5.89 µM (active)
- AC50 [9]: 23 µM (active)

Compound: COc1ccc(COc2ccccc2C(=O)NCc2ccccc2)cc1F
- AC50 [7]: 52.4 µM (active)
- AC50 [8]: 4.76 µM (active)
- AC50 [9]: 10.1 µM (active)

Compound: CN1CN(C)c2cccc3cccc1c23
- IC50 (Large T antigen): 73.9 µM (active)

Compound: Cn1c2ccccc2c2cc(C(=O)N3CCN(CCO)CC3)sc21
- EC50 [2]: > 120 µM (not active)
- EC50 (H4): 33.8 µM (active)
- EC50 [3]: 15.3 µM (active)

Compound: CCCCCn1c(=O)c(C(=O)NC(C)c2ccccc2)c(O)c2ccccc21 (stereo not drawn)
- AC50 [7]: > 70 µM (inactive)
- AC50 (INS1): 5.84 µM (active)
- AC50 [8]: 11.7 µM (active)
- AC50 [9]: 6.26 µM (active)

Compound: O=C(CN1CCN(c2ccc(O)cc2)CC1)NC(=O)NCc1ccco1
- IC50 [6]: 52.6 µM (active)

Compound: C[C@H](NC(=O)c1[nH]cnc1C(=O)NCc1ccc(CNC(=O)OC(C)(C)C)cc1)c1ccccc1
- AC50 [7]: > 70 µM (inactive)
- AC50 [8]: 11.7 µM (active)
- AC50 [9]: 14.9 µM (active)

Compound: COc1ccccc1CNc1nc(NCc2ccccc2OC)c2sccc2n1
- AC50 [7]: 22.1 µM (active)
- AC50 [8]: 6.33 µM (active)
- AC50 [9]: 9.79 µM (active)

Compound: C=C1C(=O)C23C(O)C1CCC2C12COC3(O)C(O)C1C(C)(C)CCC2O (stereo not drawn)
- AC50 [8]: 3.3 µM (active)
- AC50 [9]: 8.14 µM (active)

Compound: CC(C)CC(NC(=O)c1ccccc1)C(=O)N/N=C/c1ccco1 (stereo not drawn)
- EC50 [1]: 4.81 µM (active)

Compound: COc1cccc(/C=N/NC(=O)c2[nH]nc3c2CCc2ccccc2-3)c1
- EC50 [2]: > 120 µM (not active)
- EC50 (H4): > 120 µM (not active)
- EC50 [3]: > 60 µM (not active)

Compound: O=C(NCCNCC(O)COc1ccc(O)cc1)N1CCOCC1 (stereo not drawn)
- IC50 [6]: 118 µM (active)

Compound: Clc1ccccc1CNCc1ccc2c(c1)OCO2
- IC50 [6]: 257 µM (active)

Compound: COc1ccc(-c2cc3ccc(OCc4nn[nH]n4)cc3oc2=O)cc1
- EC50 [10]: 13.9 µM (active)
- EC50 [4]: 14.6 µM (active)
- EC50 [5]: 13.3 µM (active)

Compound: O=c1[nH]c(=O)c2nnc(N/N=C\c3ccc(O)cc3)nc2[nH]1
- IC50 (Large T antigen): 16.8 µM (active)

Compound: c1ccc(CNc2ncnc3c2ncn3C2CCCCO2)cc1 (stereo not drawn)
- EC50 [2]: 5.99 µM (active)
- EC50 (H4): > 120 µM (not active)
- EC50 [3]: 4.67 µM (active)
